In patent publication US6306847A, “Condensed purine derivatives” (Kyowa Hakko Kogyo Co., Ltd., priority 1996, dated 2001):
Counter-ions that a name gives are not always drawn. Like-named read-outs stand apart in the source and are kept apart here.

Experiments:
[1] = molecular target: T1, human adenosine A3 receptors (Homo sapiens, UniProt P0DMS8); test: Test of adenosine A3 receptor binding ([125I]AB-MECA, transfected HEK293 cell homogenate); conditions: for inhibition at 0.1 µM: read-out: The rate of inhibition (%) 10^-7 M; for inhibition at 0.01 µM: read-out: The rate of inhibition (%) 10^-8 M
T1 construct: expressed in transfected cells; host or cells: HEK293
T1 sequence (P0DMS8 1-318): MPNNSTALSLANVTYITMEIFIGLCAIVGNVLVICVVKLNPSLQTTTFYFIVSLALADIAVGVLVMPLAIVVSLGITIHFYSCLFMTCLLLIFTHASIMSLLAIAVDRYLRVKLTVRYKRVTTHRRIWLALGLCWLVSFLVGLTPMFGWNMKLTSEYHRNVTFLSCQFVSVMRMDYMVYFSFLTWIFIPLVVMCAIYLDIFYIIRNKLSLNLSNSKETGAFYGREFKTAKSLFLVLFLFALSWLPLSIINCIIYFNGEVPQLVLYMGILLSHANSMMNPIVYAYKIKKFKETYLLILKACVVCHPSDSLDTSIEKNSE
Description: The transfected HEK293 cells that expressed the human adenosine A3 receptors were homogenized in 5 mM tris(hydroxymethyl)aminomethane hydrochloric acid buffer containing 5 mM magnesium chloride (pH 7.6) by a Teflon homogenizer (Iuchiseieido Corp.). The resultant suspension was centrifuged (4000×g, 20 minutes), and a 50 mM tris(hydromethyl)aminomethane/10 mM magnesium chloride/hydrochloric acid buffer (pH 7.6) (referred to as "the Tris-HCl buffer" hereinafter) was added to the precipitate to generate the cell suspension ( the protein concentration 0.25 mg/ml). To the cell suspension was added adenosine deaminase so that the concentration was 2 U/ml, and the resultant mixture was used in the following binding experiment.
The glass fiber filter was transferred to a polypropylene tube, and the radioactivity was measured by a gamma counter (Packard Corp.).
(Rate of inhibition)=(A-B)/(C-D)×100
A: Amount of binding in the presence of the test compound
B: Amount of non-specific binding
C: Amount of total binding
D: Amount of non-specific binding

ddY mice = conditions: mouse, in vivo
From the text: A group consisting of three ddY mice (Japanese SLC) having a body weight of 19 to 21 g was used. One week after oral administration of compound 5, death of the mice was observed.

[2] = test system: compound 48/80 induced pruritic action; test: Test of inhibition of compound 48/80 induced pruritic action (scratching behavior in mice); format: in vivo, ddy mice; conditions: for (A) The number of scratching behavior/10 minutes: compound 48/80 0.5 mg/kg s.c., n=10; for (B) The rate of inhibition (%): number of scratching behavior relative to control group
Description: A group consisting of 10 ddy mice (Japanese SLC) having a body weight of […] was used in the test. After compound 5 was orally administered, 0.5 mg/kg of compound 48/80 was subcutaneously administered in a volume of 0.1 ml per 20 g. 10 minutes after administration of compound 48/80, the number of scratching behavior was measured for 10 minutes. The rate of inhibition of the group of mice administered with compound 5 relative to the number of scratching behavior of a control group was calculated, and ED50 was calculated from the rate of inhibition.

[3] = 10^-7 M test compound, [125I]AB-MECA 0.1 nM
[4] = 10^-8 M test compound, [125I]AB-MECA 0.1 nM

| SMILES | inhibition at 0.1 µM [1, 3] [%] | inhibition at 0.01 µM [1, 4] [%] | also measured |
| --- | --- | --- | --- |
| CCN1C(=O)N2CCN=C2c2[nH]c(-c3ccc(Br)cc3)nc21 [Compound 1, 2-(p-Bromophenyl)-4-ethyl-1,4,7,8-tetrahydro-5H-imidazo[2,1-i]purine-5-one hydrochloride] |  |  | inhibition at 0.1 µM [1]: 97%; inhibition at 0.01 µM [1]: 88% |
| CCN1C(=O)N2CC(C)N=C2c2[nH]c(-c3ccc(Br)cc3)nc21 (centres unmarked) [Compound 3, 2-(p-Bromophenyl)-4-ethyl-8-methyl-1,4,7,8-tetrahydro-5H-imidazo [2,1-i]-purine-5-one hydrochloride] |  |  | inhibition at 0.1 µM [1]: 96%; inhibition at 0.01 µM [1]: 65% |
| CCC1CN2C(=O)N(CC)c3nc(-c4ccc(Br)cc4)[nH]c3C2=N1 (centres unmarked) [Compound 4, 2-(p-Bromophenyl)-4,8-diethyl-1,4,7,8-tetrahydro-5H-imidazo[2,1-i]purine-5-one hydrochloride] |  |  | inhibition at 0.1 µM [1]: 90%; inhibition at 0.01 µM [1]: 73% |
| CCCN1C(=O)N2CCN=C2c2[nH]c(-c3ccc(Br)cc3)nc21.Cl [Compound 5, 2-(p-Bromophenyl)-4-propyl-1,4,7,8-tetrahydro-5H-imidazo [2,1-i]purine-5-one hydrochloride] |  |  | death of the mice (ddY mice): no death was observed; (A) The number of scratching behavior/10 minutes ([2]; 30 mg/kg p.o.): 10.70 ± 4.45 /10 minutes; (B) The rate of inhibition (%) ([2]; 30 mg/kg p.o.): 34.0%; (A) The number of scratching behavior/10 minutes ([2]; 100 mg/kg p.o.): 7.60 ± 3.12 /10 minutes; (B) The rate of inhibition (%) ([2]; 100 mg/kg p.o.): 53.1%; (A) The number of scratching behavior/10 minutes ([2]; 300 mg/kg p.o.): 6.00 ± 2.88 /10 minutes; (B) The rate of inhibition (%) ([2]; 300 mg/kg p.o.): 63.0%; ED50 ([2]; Mus musculus, po, calculated from the rate of inhibition): 96.8 mg/kg; inhibitory action on the compound 48/80 induced itching ([2]; p.o., mice): exhibited its inhibitory action |
| CCCN1C(=O)N2CC(CC)N=C2c2[nH]c(-c3ccc(Br)cc3)nc21 (centres unmarked) [Compound 8, 2-(p-Bromophenyl)-8-ethyl-4-propyl-1,4,7,8-tetrahydro-5H-imidazo[2,1-i]purine-5-one hydrochloride] |  |  | inhibition at 0.1 µM [1]: 96% |
| CCOC(=O)/C=C/c1ccc(-c2nc3c([nH]2)C2=NCCN2C(=O)N3CC)cc1 [Compound 13, Ethyl (E)-4-(4-ethyl-1,4,7,8-tetrahydro-5H-imidazo [2,1-i]purine-5-one-2-yl)cinnamate] | 76 | 75 |  |
| CCOC(=O)/C=C/c1ccc(-c2nc3c([nH]2)C2=NCCCN2C(=O)N3CC)cc1 [Compound 14, Ethyl (E)-4-(4-ethyl-1,4,5,7,8,9-hexahydropyrimido [2,1-i]purine-5-one-2-yl)cinnamate] | 55 | 29 |  |
| CCN1C(=O)N2CCCN=C2c2[nH]c(-c3ccc(/C=C/C(=O)O)cc3)nc21 [Compound 15, (E)-4-(4-Ethyl-1,4,5,7,8,9-hexahydropyrimido [2,1-i]-purine-5-one-2-yl)cinnamic acid] | 66 | 21 |  |
| CCOC(=O)/C=C/c1ccc(-c2nc3c([nH]2)C2=NC(CC)CN2C(=O)N3CC)cc1 (centres unmarked) [Compound 16, Ethyl (E)-4-(4,8-diethyl-1,4,7,8-tetrahydro-5H-imidazo-[2,1-i]purine-5-one-2-yl)cinnamate] | 92 | 17 |  |
| CCC1CN2C(=O)N(C)c3nc(-c4ccc(Br)cc4)[nH]c3C2=N1 (centres unmarked) [Compound 25, 2-(p-Bromophenyl)-8-ethyl-4-methyl-1,4,7,8-tetrahydro-5H-imidazo[2,1-i]purine-5-one hydrochloride] |  |  | inhibition at 0.1 µM [1]: 97%; inhibition at 0.01 µM [1]: 94% |
| CCCCN1C(=O)N2CCN=C2c2[nH]c(-c3ccc(Br)cc3)nc21 [Compound 26, 2-(p-Bromophenyl)-4-n-butyl-1,4,7,8-tetrahydro-5H-imidazo[2,1-i]purine-5-one hydrochloride] |  |  | inhibition at 0.01 µM [1]: 85% |

The next lines start with results.

| inhibition at 0.1 µM [1, 3] [%] | inhibition at 0.01 µM [1, 4] [%] | SMILES | also measured |
| --- | --- | --- | --- |
| 55 | 29 | CCN1C(=O)N2CCCN=C2c2[nH]c(-c3ccc(Br)cc3)nc21 [Compound 2, 2-(p-Bromophenyl)-4-ethyl-1,4,5,7,8,9-hexahydropyrimido [2,1-i]purine-5-onehydrochloride] |  |
|  | 98 | CCCN1C(=O)N2CCCN=C2c2[nH]c(-c3ccc(Br)cc3)nc21 [Compound 6, hydrochloride] |  |
| 70 | 36 | CCC1CN2C(=O)N(CC)c3nc(-c4ccc(/C=C/C(=O)O)cc4)[nH]c3C2=N1 (centres unmarked) [Compound 17, (E)-4-(4,8-Diethyl-1,4,7,8-tetrahydro-5H-imidazo [2,1-i]-purine-5-one-2-yl)cinnamic acid] |  |
| 120 | 84 | CCCN1C(=O)N2C[C@@H](C(C)C)N=C2c2[nH]c(-c3ccc(Br)cc3)nc21 [Compound 32, (R)-2-(p-Bromophenyl)-8-isopropyl-4-propyl-1,4,7,8-tetrahydro-5H-imidazo[2,1-i]purine-5-one] |  |
| 95 | 89 | CCCN1C(=O)N2C[C@H](C(C)C)N=C2c2[nH]c(-c3ccc(Br)cc3)nc21 [Compound 33, (S)-2-(p-Bromophenyl)-8-isopropyl-4-propyl-1,4,7,8-tetrahydro-5H-imidazo[2,1-i]purine-5-one] |  |
| 52 | 94 | CCCN1C(=O)N2C[C@@H](c3ccccc3)N=C2c2[nH]c(-c3ccc(Br)cc3)nc21 [Compound 35, (R)-2-(p-Bromophenyl)-8-phenyl-4-propyl-1,4,7,8-tetrahydro-5H-imidazo[2,1-i]-purine-5-one] |  |
